Laboratory results reported in patent US9856279B2 (AGIOS PHARMACEUTICALS, INC, priority 2011, dated 2018).

Legend:
U87MG cells = assay: Cellular assay for IDH1m inhibitors: inhibition of 2-HG production (LC-MS, 48 hours) in U87MG cells; type: cell-based; details: Homo sapiens, U-87 MG, inhibition of 2-HG production, U87R132H cells; read-out: U87R132H IC50
Outline: (§1)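 Each cell line is plated at 5000 cells/well in DMEM with 10% FBS and left overnight at 37 °C. Test compounds are then added for 48 h, after which 2-HG in the medium is determined by LC-MS; IC50 reflects 50% reduction compared with control.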

IDH1 R132H = IDH1 R132H (Homo sapiens, UniProt O75874, R132H); assay: Assay for IDH1 R132H inhibitors (NADPH/aKG, resazurin detection); type: biochemical; details: enzyme assay of Example 12; read-out: IDH1R132H IC50
Outline: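 Read-out is resorufin fluorescence (Ex544/Em590) 5 min after adding a 30 μM resazurin detection mix. Before that, mutant enzyme (0.2 μg/ml in its mix) ran 50 min at room temperature with compound, 8 uM NADPH and 2 mM aKG (mix levels) in Tris pH 7.5 with NaCl, MgCl2, BSA.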

HT1080 cells = assay: Cellular assay for IDH1m inhibitors: inhibition of 2-HG production (LC-MS, 48 hours) in HT1080 cells; type: cell-based; details: Homo sapiens, HT-1080; inhibition of 2-HG production, HT1080 cells; read-out: HT1080 IC50
Outline: as §1

Sequence of IDH1 R132H (O75874 whole entry R132H): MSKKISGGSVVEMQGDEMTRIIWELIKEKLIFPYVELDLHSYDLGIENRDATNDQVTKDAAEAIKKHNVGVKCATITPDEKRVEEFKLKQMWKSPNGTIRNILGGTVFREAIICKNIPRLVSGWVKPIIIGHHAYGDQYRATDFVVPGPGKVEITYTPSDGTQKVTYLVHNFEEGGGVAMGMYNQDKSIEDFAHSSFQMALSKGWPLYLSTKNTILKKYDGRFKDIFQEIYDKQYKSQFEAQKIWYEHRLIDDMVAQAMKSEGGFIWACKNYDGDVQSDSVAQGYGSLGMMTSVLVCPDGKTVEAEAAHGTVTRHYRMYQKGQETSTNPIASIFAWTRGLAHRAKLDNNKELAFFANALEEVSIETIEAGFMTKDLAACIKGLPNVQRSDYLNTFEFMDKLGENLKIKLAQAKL

| Structure (SMILES) | IC50 (U87MG cells) | IC50 (IDH1 R132H) | IC50 (HT1080 cells) |
| --- | --- | --- | --- |
| C#CC(=O)Nc1cccc(-c2cc(C#N)c(N3CCN(C(=O)CCOC)[C@H](C)C3)nc2C2CC2)c1 [Compound 428, (R)—N-(3-(5-cyano-2-cyclopropyl-6-(4-(3-methoxypropanoyl)-3-methylpiperazin-1-yl)pyridin-3-yl)phenyl)propiolamide] | 500 to 1000 nM | < 500 nM | < 500 nM |
| COCCC(=O)N1CCN(c2nc(C3CC3)c(-c3cncc4ccccc34)c(C)c2C#N)C[C@H]1C [Compound 408, 6-cyclopropyl-5-(isoquinolin-4-yl)-2-((R)-4-(3-methoxypropanoyl)-3-methylpiperazin-1-yl)-4-methylnicotinonitrile] | < 500 nM | < 500 nM | 500 to 1000 nM |
| C=Cc1cnnc(-c2cc(C#N)c(N3CCN(C(=O)CCO)[C@H](C4CC4)C3)nc2C2CC2)c1 [Compound 716, (R)-6-cyclopropyl-2-(3-cyclopropyl-4-(3-hydroxypropanoyl)piperazin-1-yl)-5-(5-vinylpyridazin-3-yl)nicotinonitrile] | < 500 nM | < 500 nM | < 500 nM |
| C=Cc1cc(-c2cc(C#N)c(N3CCN(C(=O)c4ccoc4)[C@H](C4CC4)C3)nc2C2CC2)ccn1 [Compound 546, (R)-2-cyclopropyl-6-(3-cyclopropyl-4-(furan-3-carbonyl)piperazin-1-yl)-2′-vinyl-3,4′-bipyridine-5-carbonitrile] | < 500 nM | < 500 nM | < 500 nM |
| COCCC(=O)N1CCN(c2nc(C3CC3)c(Oc3cc(Cl)ncn3)cc2C#N)C[C@H]1C [Compound 666, (R)-5-((6-chloropyrimidin-4-yl)oxy)-6-cyclopropyl-2-(4-(3-methoxypropanoyl)-3-methylpiperazin-1-yl)nicotinonitrile] | < 500 nM | < 500 nM | < 500 nM |

The remaining lines, values ahead:

| IC50 (U87MG cells) | IC50 (IDH1 R132H) | IC50 (HT1080 cells) | Structure (SMILES) |
| --- | --- | --- | --- |
| < 500 nM | < 500 nM | < 500 nM | C=Cc1cc(-c2cc(C#N)c(N3CCN(C(=O)CCO)[C@@H](C4CC4)C3)nc2C2CC2)ccn1 [Compound 587, (S)-2-cyclopropyl-6-(3-cyclopropyl-4-(3-hydroxypropanoyl)piperazin-1-yl)-2′-vinyl-[3,4′-bipyridine]-5-carbonitrile] |
| < 500 nM | < 500 nM | < 500 nM | C=CC(=O)N1CC=C(c2cc(C#N)c(N3CCN(C(=O)C4CC4)[C@H](C)C3)nc2C2CC2)C1 [Compound 612, (R)-5-(1-acryloyl-2,5-dihydro-1H-pyrrol-3-yl)-2-(4-(cyclopropanecarbonyl)-3-methylpiperazin-1-yl)-6-cyclopropylnicotinonitrile] |
| < 500 nM | < 500 nM | < 500 nM | C=Cc1cc(-c2cc(C#N)c(N3CCN(C(=O)CCOC)[C@H](C(C)C)C3)nc2C2CC2)c2cccnc2n1 [Compound 626, (R)-6-cyclopropyl-2-(3-isopropyl-4-(3-methoxypropanoyl)piperazin-1-yl)-5-(2-vinyl-1,8-naphthyridin-4-yl)nicotinonitrile] |
| < 500 nM | < 500 nM | < 500 nM | C=Cc1cc(N(C)c2cc(C#N)c(N3CCN(C(=O)CCO)[C@H](C4CC4)C3)nc2C2CC2)ccn1 [Compound 730, (R)-6-cyclopropyl-2-(3-cyclopropyl-4-(3-hydroxypropanoyl)piperazin-1-yl)-5-(methyl(2-vinylpyridin-4-yl)amino)nicotinonitrile] |
| < 500 nM | < 500 nM | < 500 nM | C=Cc1cc(-c2cc(C#N)c(N3CCN(C(=O)C4CC4)[C@H](C)C3)nc2C2CC2)ccn1 [Compound 443, (R)-6-(4-(cyclopropanecarbonyl)-3-methylpiperazin-1-yl)-2-cyclopropyl-2′-vinyl-3,4′-bipyridine-5-carbonitrile] |
| 1000 to 10000 nM | < 500 nM | 1000 to 10000 nM | C/C=C/C(=O)Nc1cccc(-c2cc(C#N)c(N3CCN(C(=O)CCOC)[C@H](C)C3)nc2C2CC2)c1 [Compound 415, (R,E)-N-(3-(5-cyano-2-cyclopropyl-6-(4-(3-methoxypropanoyl)-3-methylpiperazin-1-yl)pyridin-3-yl)phenyl)but-2-enamide] |
